{"source": "patent US6630449B2", "about": "“Method for reducing the effect of nicotine addiction and dependancy” (priority 2000, dated 2003)", "key": {"[1]": {"system": "smoker (craving for nicotine)", "test": "Treatment of smokers with corticotrophin injection to reduce craving for nicotine (case examples)", "assay_type": "in vivo, human", "from_the_text": "Referring to the FIG. a suitable and preferred process for the treatment of smokers includes nutritional and relaxant supplements, corticotrophin administration, and counseling. On day one, the smoker comes into a clinic for orientation 10. At the time of the first office visit, a medical history is taken and a physical given 12 is taken by the physician, and a determination is made as to whether a given smoker is a satisfactory candidate for treatment 14. […] If the smoker is allowed to participate in the program, the physician will write a prescription of r the needed medications. Then, immediately before the smoker leaves the clinic, a pharmacist fills their prescription for and dispenses to the smoker their supply of nutrition supplements and mild relaxants 16. The next day, day two, the smoker has the first BMS 18. Then on day three the smoker comes back to the clinic and receives the first injection of corticotrophins 20 from the physician. This is the time and place the smoker gives up smoking 22. On day five the smoker participates in a second BMS 24. On day seven, the smoker returns to receive the second injection of corticotrophins 26 from the physician. On day fourteen the smoker, now presumably a former smoker, returns for the last BMS 28. […]"}, "[2]": {"system": "smokers (craving for nicotine)", "conditions": "cited from earlier work; for time after first administration at which the effect starts to wear off / duration of nicotine craving relief: after injection"}}, "note": "Where two headings read alike, the source gives them in different places.", "data": [{"substance": "Adrenocorticotrophin hormone", "values": [{"measurement": "smoking cessation outcome", "setting": "[1]; about 250 pounds, three packs a day, one injection of 160 units with counseling and nutritional supplements, no second injection", "value": "ceased smoking permanently"}, {"measurement": "smoking cessation outcome", "setting": "[1]; comparative example, about 170 pounds, over one pack a day, one injection of 160 units, no appropriate counseling", "value": "resumed smoking"}, {"measurement": "time after first administration at which the effect starts to wear off / duration of nicotine craving relief", "setting": "[2]; listed as Corticotrophins", "value": "fifty and one hundred"}, {"measurement": "time after first administration at which the effect starts to wear off / duration of nicotine craving relief", "setting": "[2]; listed as corticotrophins", "value": "About seventy two"}, {"measurement": "effect on craving for nicotine", "setting": "[2]; given to smokers intramuscularly", "value": "dramatically reduce the craving for nicotine"}, {"measurement": "patients who start smoking again", "setting": "[2]; one administration (Bourne treatment), after about thirty days", "value": "thirty to sixty"}, {"measurement": "duration of reduced cravings for nicotine after one administration", "setting": "[2]; one administration (Bourne treatment)", "value": "thirty"}]}]}
